Reference: US5690906A (The Trustees of the University of Pennsylvania, priority 1995, dated 1997)
Where two headings read alike, the source gives them in different places.

Assays:
[1] = Stability of the radiolabelled product on storage (HPLC); format: physicochemical
Experimental: Hydrogen peroxide ([…]) was added to a mixture of […] (1mg/ml EtOH), […] and I-125 (2-3 mCi) in a sealed vial. The reaction was allowed to proceed for 20 min at room temperature, and was then terminated by addition of 0.1 ml of sodium bisulfite (300 mg/ml). The reaction mixture was extracted with ethyl acetate (3×1 ml) after neutralization with saturated NaHCO3 solution. The extracted ethyl acetate layers were evaporated to dryness, and the remaining residue was dissolved in EtOH and purified by HPLC using a reverse phase column (PRP-1 column, Hamilton Co., Reno, Nev.) eluted with an isocratic solvent of 80% acetonitrile-20% pH 7.0 buffer (5 mM 3,3'-dimethylglutaric acid). The fractions containing the desired product were collected, condensed and re-extracted with ethyl acetate (3×1 ml). The no-carrier-added final product (purity >98%) was evaporated to dryness and redissolved in […] with 100 mg ascorbic acid added as an anti-oxidant.
No-carrier-added [^125 I ]trans-8-OH-PIPAT(^125 I]8) was prepared by an iododestannylation reaction similar to the procedure reported previously (Acta. Chim. Scan., 1988, B42, 231-236). Hydrogen peroxide (50 μl 3% w/v) was added to a mixture of 50 μl of tributyltin precursor, 11 (11 mg/ml EtOH), 50 μl of 1N HCl and I-125 (2-3 mCi) in a sealed vial. The reaction was allowed to proceed for 20 minutes at room temperature, and was then terminated by addition of 0.1 ml of sodium bisulfite (300 mg/ml). The reaction mixture was extracted with ethyl acetate (3×1 ml) after neutralization with saturated NaHCO3 solution. The extracted ethyl acetate layers were evaporated to dryness, and the remaining residue was dissolved in EtOH and purified by HPCL using a reverse phase column (PRP-1 column, Hamilton Co., Reno, Nev.) eluted with an isocratic solvent of 80% acetonitrile-20% pH 7.0 buffer (5 mM 3,3'-dimethylglutaric acid); the retention time was 9 minutes (1 ml/min). The fractions containing the desired product were collected, condensed and re-extracted with ethyl acetate (3×1 ml). The final product of no-carrier-added (purity>98%) was evaporated to dryness and redissolved in 100 μl of 50% EtOH with 100 μg of ascorbic acid added as an anti-oxidant. The final product [^125 I] trans-8-OH-PIPAT(^125 I]8) was stored at -20° C.

5-HT1A receptor = biological target: T1, 5-HT1A receptor (Rattus norvegicus, UniProt P19327); assay: Inhibition of [^3 H]-8-OH-DPAT binding to rat hippocampal membrane homogenates; conditions: for Ki: against [^3 H]-8-OH-DPAT, rat hippocampus membranes, read-out: K1 (inhibition constant)
T1 construct: from tissue; host or cells: rat hippocampus membrane homogenates
T1 sequence (P19327 1-422): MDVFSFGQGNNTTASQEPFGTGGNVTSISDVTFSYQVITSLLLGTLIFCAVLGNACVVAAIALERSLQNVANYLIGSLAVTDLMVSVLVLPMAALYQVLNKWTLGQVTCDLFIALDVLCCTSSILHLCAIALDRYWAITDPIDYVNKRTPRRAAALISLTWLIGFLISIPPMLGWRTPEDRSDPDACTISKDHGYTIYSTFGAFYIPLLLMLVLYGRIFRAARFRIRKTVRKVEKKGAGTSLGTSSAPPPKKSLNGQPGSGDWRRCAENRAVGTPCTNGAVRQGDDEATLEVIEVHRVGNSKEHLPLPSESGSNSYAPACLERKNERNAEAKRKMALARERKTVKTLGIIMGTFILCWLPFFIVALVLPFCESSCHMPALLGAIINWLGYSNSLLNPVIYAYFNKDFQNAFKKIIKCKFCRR
Experimental: The hippocampal homogenates were prepared in 100 volumes of ice-cold Tris-HCl buffer (50mM, pH 7.4) and centrifuged at 20,000 g for 20 minutes. […] The final pellets were resuspended in the Tris-buffer containing 2mM of MgCl2. […] The tubes were incubated at 37° C. for fifteen minutes and then terminated by vacuum filtration through glass filters (Schleicher & Schuell, No. 25, Keene, N.H.) soaked with 1% polyethylimine. […] Both Scatchard and competition experiments were analyzed using the iterative least-squarecurve fitting program LIGAND.

dopamine D2L receptor = assay: Specific binding of [^125 I]trans-7-OH-PIPAT to D2L receptors expressed in Sf9 cells; set-up: species or system rat; conditions: data not shown
dopamine D2S receptor = assay: Specific binding of [^125 I]trans-7-OH-PIPAT to D2S receptors expressed in Sf9 cells; set-up: species or system rat; conditions: data not shown

CCCN(C/C=C/[125I])C1CCc2cccc(O)c2C1 (stereo not drawn) [[^125 I] trans-8-OH-PIPAT]
purity after storage for at least four weeks ([1]; -20° C., analyzed by HPLC, 40320 min): 95%
stability of the product on storage ([1]; stored at -20° C., 50% EtOH with ascorbic acid): stable for at least four weeks

CCCN(C/C=C/I)C1CCc2cccc(O)c2C1 (mixture of isomers) [(±)trans-8-OH-PIPAT, trans-8-Hydroxy-2-[N-propyl-N-(3'-iodo-2'propenyl)] aminotetralin]
affinity / selectivity for 5-HT1A (5-HT1A receptor): unique high affinity and selectivity toward serotonin 5-HT1A sites
Ki (5-HT1A receptor): 0.92 ± 0.13 nM

CCCN(C/C=C/[125I])C1CCc2ccc(O)cc2C1 (stereo not drawn) [[^125 I]trans-7-OH-PIPAT]
specific binding toward D2L (dopamine D2L receptor): no specific binding
specific binding toward D2S (dopamine D2S receptor): no specific binding
stability of the product on storage [1]: stable for at least four weeks
purity after storage for at least four weeks ([1]; 50% etoh with ascorbic acid, 672 h): > 95%

CCCN(C/C=C/I)C1CCc2cccc(OC)c2C1 (mixture of isomers) [(±)trans-8-OMe-PIPAT, trans-8-Methoxy-2-[N-propyl-N-(3'-iodo-2'propenyl)]aminotetralin]
Ki (5-HT1A receptor): 12.6 ± 1.5 nM

COc1cccc2c1CC(NC/C=C/I)CC2 (racemic) [(±)trans-8-OMe-IPAT, 8-Methoxy-2-(N-3'-iodo-2'-propenyl) aminotetralin]
Ki (5-HT1A receptor): 17 ± 2.2 nM
